# Source: patent US9884048B2, “ERK inhibitors” (Merck Sharp & Dohme Corp., priority 2014, dated 2018)
# Target: phosphorylated active hERK2 enzyme (Homo sapiens (Human), UniProt P28482)
# Settings: not given
# Chain of phosphorylated active hERK2 enzyme (P28482 whole entry): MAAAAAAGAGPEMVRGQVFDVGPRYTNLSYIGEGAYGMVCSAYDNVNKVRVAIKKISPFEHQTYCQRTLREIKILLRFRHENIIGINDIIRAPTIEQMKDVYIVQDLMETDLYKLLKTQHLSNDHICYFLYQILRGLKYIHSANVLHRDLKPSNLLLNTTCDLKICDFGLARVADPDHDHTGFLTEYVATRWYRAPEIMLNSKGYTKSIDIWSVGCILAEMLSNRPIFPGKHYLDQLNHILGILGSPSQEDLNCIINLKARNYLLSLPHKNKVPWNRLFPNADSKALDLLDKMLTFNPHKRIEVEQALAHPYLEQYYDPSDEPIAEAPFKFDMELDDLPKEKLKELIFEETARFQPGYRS
row,IC50,Structure (SMILES)
1,0.285 µM,"C[C@@H](NC(=O)Nc1cc2cnn(CC3CCOCC3)c2c(CO)n1)c1ccccc1 [Example 309, 1-[7-(hydroxymethyl)-1-(tetrahydro-2H-pyran-4-ylmethyl)-1H-pyrazolo[3,4-c]pyridin-5-yl]-3-[(1R)-1-phenylethyl]urea]"
2,0.00307 µM,"Cc1cc(-n2ncc3cc(NC(=O)N[C@H]4CN(C)C[C@@H]4c4cccc(F)c4)ncc32)ccn1 [Example 19, 1-[(3R,4S)-4-(3-fluorophenyl)-1-methylpyrrolidin-3-yl]-3-[1-(2-methylpyridin-4-yl)-1H-pyrazolo[3,4-c]pyridin-5-yl)urea]"

# Same assay, conditions: read-out: ERK2 IC50; IMAP-FP assay; 0.5 nM hERK2, 30 μM ATP; 10 point titration, 3 μM starting concentration
row,Structure (SMILES),IC50
1,"Cc1cc(-n2ncc3cc(NC(=O)NC4CNC(c5ccccc5)C4)ncc32)ccn1 (centres unmarked) [Example 67, 1-[1-(2-methylpyridin-4-yl)-1H-pyrazolo[3,4-c]pyridin-5-yl]-3-(5-phenylpyrrolidin-3-yl)urea]",0.201 µM
2,"C[C@@H](NC(=O)Nc1cc2cnn(CC3CC3)c2c(CO)n1)c1ccccc1 [Example 308, 1-[1-(cyclopropylmethyl)-7-(hydroxymethyl)-1H-pyrazolo[3,4-c]pyridin-5-yl]-3-[(1R)-1-phenylethyl]urea]",0.0795 µM
3,"Cc1cc(-n2ncc3cc(NC(=O)N[C@@H]4CCN(c5ccc(F)cc5)C4)ncc32)ccn1 [Example 34, 1-[(3R)-1-(4-fluorophenyl)pyrrolidin-3-yl]-3-[1-(2-methylpyridin-4-yl)-1H-pyrazolo[3,4-c]pyridin-5-yl]urea]",0.762 µM
4,"Cc1cc(-n2ncc3cc(NC(=O)NC(C)(C)c4ccccc4)ncc32)ccn1 [Example 122, 1-(1-methyl-1-phenylethyl)-3-[1-(2-methylpyridin-4-yl)-1H-pyrazolo[3,4-c]pyridin-5-yl]urea]",0.0568 µM
5,"CCO[C@H]1CN(Cc2ccccc2C(F)(F)F)C[C@@H]1NC(=O)Nc1cc2cnn(-c3ccnc(C)c3)c2cn1 [Example 279, 1-{(3S,4S)-4-ethoxy-1-[2-(trifluoromethyl)benzyl]pyrrolidin-3-yl}-3-[1-(2-methylpyridin-4-yl)-1H-pyrazolo[3,4-c]pyridin-5-yl]urea]",1.75 µM
6,"Cc1cc(-n2ncc3cc(NC(=O)N[C@H]4CN(C)C[C@@H]4c4ccccc4C)ncc32)ccn1 (single isomer, unassigned) [Example 36, 1-[(3R,4S) or (3S, 4R)-1-methyl-4-(2-methylphenyl)pyrrolidin-3-yl]-3-[1-(2-methylpyridin-4-yl)-1H-pyrazolo[3,4-c]pyridin-5-yl)urea]",0.00083 µM
7,"Cc1cc(-n2ncc3cc(NC(=O)NCc4ccc(C(C)(C)O)cc4)ncc32)ccn1 [Example 86, 1-[4-(1-hydroxy-1-methylethyl)benzyl]-3-[1-(2-methylpyridin-4-yl)-1H-pyrazolo[3,4-c]pyridin-5-yl)urea]",0.731 µM
8,"CN1C[C@H](NC(=O)Nc2cc3cnn(-c4ccc(F)cc4)c3cn2)[C@@H](c2ccccc2)C1 [Example 208, 1-[1-(4-fluorophenyl)-1H-pyrazolo[3,4-c]pyridin-5-yl]-3-[(3R,4S)-1-methyl-4-phenylpyrrolidin-3-yl]urea]",0.000579 µM
9,"Cc1cc(-n2ncc3cc(NC(=O)NC4COc5ccccc54)ncc32)ccn1 (centres unmarked) [Example 177, 1-(2,3-dihydro-1-benzofuran-3-yl)-3-[1-(2-methylpyridin-4-yl)-1H-pyrazolo[3,4-c]pyridin-5-yl]urea]",0.215 µM
10,"Cc1cc(-n2ncc3cc(NC(=O)NC4CCN(C)C4=O)ncc32)ccn1 (centres unmarked) [Example 23, 1-(1-methyl-2-oxopyrrolidin-3-yl)-3-[1-(2-methylpyridin-4-yl)-1H-pyrazolo[3,4-c]pyridin-5-yl)urea]",0.314 µM
11,"Cc1cc(-n2ncc3cc(NC(=O)NC4CCNC4)ncc32)ccn1 (centres unmarked) [Example 133, 1-[1-(2-methylpyridin-4-yl)-1H-pyrazolo[3,4-c]pyridin-5-yl]-3-pyrrolidin-3-ylurea]",0.456 µM
12,"Cc1cc(-n2ncc3cc(NC(=O)NC4CNCC(c5ccccc5)C4)ncc32)ccn1 (centres unmarked) [Example 288, 1-[1-(2-methylpyridin-4-yl)-1H-pyrazolo[3,4-c]pyridin-5-yl]-3-(5-phenylpiperidin-3-yl)urea]",0.0105 µM
13,"Cc1cc(-n2ncc3cc(NC(=O)N[C@H]4[C@H](c5ccccc5)CN(C)C45COC5)ncc32)ccn1 [Example 183, 1-[(7R,8S)-5-methyl-7-phenyl-2-oxa-5-azaspiro[3.4]oct-8-yl]-3-[1-(2-methylpyridin-4-yl)-1H-pyrazolo[3,4-c]pyridin-5-yl]urea]",0.0122 µM
14,"CC(C)(O)[C@@H](NC(=O)Nc1cc2cnn(-c3ncc4c(n3)CNCC4)c2cn1)c1ccc(F)cc1 [Example 317, 1-[(1S)-1-(4-fluorophenyl)-2-hydroxy-2-methylpropyl]-3-[1-(5,6,7,8-tetrahydropyrido[3,4-d]pyrimidin-2-yl)-1H-pyrazolo[3,4-c]pyridin-5-yl]urea]",0.327 µM
15,"C[C@@H](NC(=O)Nc1cc2cnn(-c3ccc(F)cc3)c2cn1)c1ccc(F)cc1 [Example 3, 1-[(1R)-1-(4-fluorophenyl)ethyl]-3-[1-(4-fluorophenyl)-1H-pyrazolo[3,4-c]pyridin-5-yl)urea]",0.0106 µM
16,"Cc1cc(-n2ncc3cc(NC(=O)NC45CC6CC(CC(O)(C6)C4)C5)ncc32)ccn1 [Example 77, 1-(3-hydroxytricyclo[3.3.1.1~3,7~]dec-1-yl)-3-[1-(2-methylpyridin-4-yl)-1H-pyrazolo[3,4-c]pyridin-5-yl)urea]",1.88 µM
17,"C[C@@H](O)[C@@H](NC(=O)Nc1cc2cn[nH]c2cn1)c1ccccc1 [Example 227, 1-((1S,2R)-2-Hydroxy-1-phenylpropyl)-3-(1H-pyrazolo[3,4-c]pyridin-5-yl)urea]",0.134 µM
18,"Cc1cc(-n2ncc3cc(NC(=O)N[C@@H]4[C@@H](c5ccccc5)CN(C)C45COC5)ncc32)ccn1 [Example 184, 1-[(7S,8R)-5-methyl-7-phenyl-2-oxa-5-azaspiro[3.4]oct-8-yl]-3-[1-(2-methylpyridin-4-yl)-1H-pyrazolo[3,4-c]pyridin-5-yl]urea]",0.873 µM
19,"C[C@@H](NC(=O)Nc1cc2cnn(CC(F)(F)F)c2c(CO)n1)c1ccccc1 [Example 314, 1-[7-(hydroxymethyl)-1-(2,2,2-trifluoroethyl)-1H-pyrazolo[3,4-c]pyridin-5-yl]-3-[(1R)-1-phenylethyl]urea]",0.175 µM
20,"Cc1cc(-n2ncc3cc(NC(=O)N[C@H]4CN(C(C)C)C[C@@H]4c4ccccc4)ncc32)ccn1 [Example 198, 1-[(3R,4S)-1-(1-methylethyl)-4-phenylpyrrolidin-3-yl]-3-[1-(2-methylpyridin-4-yl)-1H-pyrazolo[3,4-c]pyridin-5-yl]urea]",0.00264 µM
21,"Cc1cc(-n2ncc3cc(NC(=O)NC4CCOc5ccccc54)ncc32)ccn1 (centres unmarked) [Example 172, 1-(3,4-dihydro-2H-chromen-4-yl)-3-[1-(2-methylpyridin-4-yl)-1H-pyrazolo[3,4-c]pyridin-5-yl)urea]",0.0407 µM
22,"Cc1cc(-n2ncc3cc(NC(=O)NC4CCN(Cc5cccnc5Cl)C4)ncc32)ccn1 (centres unmarked) [Example 281, 1-{1-[(2-chloropyridin-3-yl)methyl]pyrrolidin-3-yl}-3-[1-(2-methylpyridin-4-yl)-1H-pyrazolo[3,4-c]pyridin-5-yl]urea]",0.00284 µM

# The next lines start with the values.
row,IC50,Structure (SMILES)
1,0.0027 µM,"O=C(NCc1ccccc1)Nc1cc2cnn(-c3ccncc3)c2cn1 [Example 2, 1-benzyl-3-(1-pyridin-4-yl-1H-pyrazolo[3,4-c]pyridin-5-yl)urea]"
2,0.745 µM,"COC[C@@H](NC(=O)Nc1cc2cnn(-c3ccnc(C)c3)c2cn1)c1ccccn1 [Example 210, 1-[(1S)-2-methoxy-1-pyridin-2-ylethyl]-3-[1-(2-methylpyridin-4-yl)-1H-pyrazolo[3,4-c]pyridin-5-yl]urea]"
3,0.152 µM,"Cc1cc(-n2ncc3cc(NC(=O)N[C@H](CN4CCOCC4)c4ccccc4)ncc32)ccn1 [Example 127, 1-[1-(2-methylpyridin-4-yl)-1H-pyrazolo[3,4-c]pyridin-5-yl]-3-[(1S)-2-morpholin-4-yl-1-phenylethyl]urea]"
4,0.0111 µM,"COCc1nc(NC(=O)N[C@H](C)c2ccccc2)cc2cnn(-c3ccnc(C)c3)c12 [Example 247, 1-[7-(methoxymethyl)-1-(2-methylpyridin-4-yl)-1H-pyrazolo[3,4-c]pyridin-5-yl]-3-[(1R)-1-phenylethyl]urea]"
5,0.00033 µM,"Cn1cc2cc(-n3ncc4cc(NC(=O)N[C@@H](c5ccccc5)C(C)(C)O)ncc43)ccc2n1 [Example 207, 1-[(1S)-2-hydroxy-2-methyl-1-phenylpropyl]-3[-1-(2-methyl-2H-indazol-5-yl)-1H-pyrazolo[3,4-c]pyridin-5-yl]urea]"
6,0.882 µM,"COC[C@@H](NC(=O)Nc1cc2cnn(C)c2cn1)c1ccccc1 [Example 237, 1-[(1S)-2-methoxy-1-phenylethyl]-3-(1-methyl-1H-pyrazolo[3,4-c]pyridin-5-yl)urea]"
7,0.00109 µM,"CCOC[C@@H](NC(=O)Nc1cc2cnn(-c3ccnc(C)c3)c2cn1)c1ccccc1 [Example 129, 1-[(1S)-2-ethoxy-1-phenylethyl]-3-[1-(2-methylpyridin-4-yl)-1H-pyrazolo[3,4-c]pyridin-5-yl)urea]"
8,0.0309 µM,"COC[C@@H](NC(=O)Nc1cc2cnn(Cc3ccncc3)c2cn1)c1ccccc1 [Example 260, 1-[(1S)-2-methoxy-1-phenylethyl]-3-[1-(pyridin-4-ylmethyl)-1H-pyrazolo[3,4-c]pyridin-5-yl]urea]"
9,0.00106 µM,"Cc1cc(-n2ncc3cc(NC(=O)N[C@@H](c4ccccc4)C(C)O)ncc32)ccn1 (stereo partly drawn) [Example 297, (S)-1-(2-hydroxy-1-phenylpropyl)-3-(1-(2-methylpyridin-4-yl)-1H-pyrazolo[3,4-c]pyridin-5-yl)urea]"
10,0.475 µM,"Cc1cc(-n2ncc3cc(NC(=O)N[C@H](Cn4ccnc4)c4ccccc4)ncc32)ccn1 [Example 134, 1-[(1S)-2-(1H-imidazol-1-yl)-1-phenylethyl]-3-[1-(2-methylpyridin-4-yl)-1H-pyrazolo[3,4-c]pyridin-5-yl]urea]"
11,0.0054 µM,"Cc1cc(-n2ncc3cc(NC(=O)NCCOCc4ccccc4)ncc32)ccn1 [Example 95, 1-[2-(benzyloxy)ethyl]-3-[1-(2-methylpyridin-4-yl)-1H-pyrazolo[3,4-c]pyridin-5-yl]urea]"
